Measurements taken from US20210048443A1, “METHOD FOR DIAGNOSING HAEMOSTASIS DISORDERS USING ACTIVATED CHARCOAL” (UNIVERSITÉ DE NAMUR ASBL, priority 2018, published 2021).

Key:
[1] = system: Lupus anticoagulant; test: Lupus anticoagulant test, interference of direct oral anticoagulants; format: biochemical; settings: arrow grades; false positive due to high screen/confirmation assay ratios
Excerpt: (§1) Coagulation tests or assays most affected by the presence of anticoagulants in the plasma sample will be the tests that involve the clotting factor to which the coagulation inhibitor is directed, leading to false-positive or false-negative results (Table 1).

[2] = system: Antithrombin activity; test: Antithrombin activity assay, interference of direct oral anticoagulants; format: biochemical; settings: arrow grades
Excerpt: as §1

[3] = system: Protein C activity; test: Protein C activity assay, interference of direct oral anticoagulants; format: biochemical; settings: arrow grades; chromogenic and antigen-based assays unaffected, clot-based affected
Excerpt: as §1

[4] = system: Protein S activity; test: Protein S activity assay, interference of direct oral anticoagulants; format: biochemical; settings: arrow grades; antigen-based assay unaffected, clot-based affected
Excerpt: as §1

[5] = system: platelet-poor plasma; test: Prothrombin Time (PT) assay on plasma with DOACs; format: biochemical; settings: for Effect on PT of platelet-poor plasma: increasing concentrations of DOACs, no charcoal (FIG. 2b)
Method: (§2) For the preparation of such plasma samples, blood components of a blood sample from a patient are typically separated by two centrifugation steps, both at 2500 g for 15 min (FIG. 1). The first centrifugation step will separate the blood in solid substances (e.g. red and white blood cells) (i.e. the lower phase) and blood plasma (i.e. upper phase). Subsequently, the blood plasma is collected and submitted to a second centrifugation step, which pelletizes the residual blood cells and/or platelets. The upper phase obtained by the second centrifugation step (i.e. platelet-poor plasma) can be used for haemostatic tests. However, the platelet-poor plasma obtained by standard methods will comprise direct anticoagulants (e.g. DOACs), if the patient is treated therewith, which may interfere with several clotting times tests (Table 1).
(§3) A blood sample obtained from a subject was centrifuged at 2500 g during 15 min to separate the blood into solid substances (e.g. red and white blood cells) (i.e. lower phase) and blood plasma (i.e. upper phase).
(§4) The plasma obtained from the first (and only) centrifugation step was incubated with activated charcoal (10 mg/ml of plasma) for 5 minutes and the plasma was subsequently recovered from the activated charcoal by passing the plasma through a filter with 0.65 μm pores (FIG. 3). Passing the plasma through the filter was achieved by a short centrifugation.
(§5) The plasma sample was incubated with different concentrations of activated charcoal (i.e. 5 mg/ml, 10 mg/ml or 15 mg/ml) for 5 minutes and the plasma was subsequently recovered from the activated charcoal by passing the plasma through a filter with 0.65 μm pores and activated charcoal by a short centrifugation.

[6] = system: platelet-poor plasma; test: activated Partial Thromboplastin Time (aPTT) assay on plasma with DOACs; format: biochemical; settings: for Effect on aPTT of platelet-poor plasma: increasing concentrations of DOACs, no charcoal (FIG. 2a)
Method: as §2, with “Standard tests for in vitro diagnosis of a haemostasis disorder, for example in hospital laboratories, are generally performed on plasma samples obtain from a patient. For” for “For”
as §3
as §4, with “centrifugation. The filter with 0.65 μm pores allowed to efficiently remove the activated charcoal and residual blood cells and/or platelets, which have a larger size than 0.65 μm, from the plasma with a minimal interference with blood coagulation tests.” for “centrifugation.”
as §5, with “Plasma was obtained by centrifuging once a blood sample obtained from a subject as described in Example 2. The” for “The”

[7] = system: aPTT/clotting factors; test: aPTT/clotting factors, interference of direct oral anticoagulants; format: biochemical; settings: arrow grades, key not given; all factors affected
Excerpt: as §1

[8] = system: APCR; test: APCR (activated protein C resistance) assay, interference of direct oral anticoagulants; format: biochemical; settings: for Interference with APCR: arrow grades, aPTT-based assays are mostly affected
Excerpt: as §1

[9] = system: PT/clotting factors; test: PT/clotting factors, interference of direct oral anticoagulants; format: biochemical; settings: arrow grades, key not given; all factors affected
Excerpt: as §1

[10] = system: patient's plasma; test: LA diagnostic assays (PTT LA, Staclot LA, DRVVT, DRVVT confirm) on patient's plasma; format: biochemical; settings: platelet-poor plasma of patient treated with rivaroxaban (339 ng per ml), DRVVT confirm (FIG. 6)
Method: The efficacy of the method as disclosed herein was assessed in a clinical situation. […] For LA diagnosis, several in vitro diagnosis assays were performed on the patient's plasma, including Partial Thromboplastin Time-Lupus anticoagulant Screen (PTT LA), PTT LA confirm (Staclot LA), Dilute Russel Viper Venom Time screen (DRVVT) and DRVVT confirm.

[11] = human, in vivo

Row | SMILES | Interference with Lupus anticoagulant [1] | Interference with Antithrombin activity [2] | Interference with Protein C activity [3] | Interference with Protein S activity [4] | Effect on PT of platelet-poor plasma [5] | Effect on aPTT of platelet-poor plasma [6] | Interference with aPTT/clotting factors [7] | Interference with APCR [8] | Interference with PT/clotting factors [9] | Effect of Rivaroxaban on PT after activated charcoal treatment ([5]; activated charcoal 5, 10 or 15 mg/ml, 5 minutes, 0.65 μm filter, Rivaroxaban up to 1000 ng/ml (FIG. 5b)) | Effect of Rivaroxaban on aPTT after activated charcoal treatment ([6]; activated charcoal 5, 10 or 15 mg/ml, 5 minutes, 0.65 μm filter, Rivaroxaban up to 1000 ng/ml (FIG. 5a)) | Clotting time in LA diagnostic assays, untreated plasma [10] | Interference with Pefakit APCR Factor V Leiden ([8]; Pefakit APCR Factor V Leiden kit) | rivaroxaban per ml of plasma in patient plasma sample [11]
1 | COc1ccc(-n2nc(C(N)=O)c3c2C(=O)N(c2ccc(N4CCCCC4=O)cc2)CC3)cc1 [Apixaban, 1-(4-methoxyphenyl)-7-oxo-6-[4-(2-oxopiperidin-1-yl)phenyl]-4,5-dihydropyrazolo[3,4-c]pyridine-3-carboxamide] | —/↑ | —/↑ | —/↑ | —/↑ | prolonged | prolonged | ↓/↓↓ | ↑ | ↓/↓↓ | – | – | – | – | –
2 | COc1ccc(NC(=O)c2ccc(C(=N)N(C)C)cc2)c(C(=O)Nc2ccc(Cl)cn2)c1 [Betrixaban] | – | – | – | – | prolonged | prolonged | ↓↓ | – | ↓↓ | – | – | – | – | –
3 | CN1CCc2nc(C(=O)N[C@@H]3C[C@@H](C(=O)N(C)C)CC[C@@H]3NC(=O)C(=O)Nc3ccc(Cl)cn3)sc2C1 [Edoxaban, N′-(5-chloropyridin-2-yl)-N-[(1S,2R,4S)-4-(dimethylcarbamoyl)-2-[(5-methyl-6,7-dihydro-4H-[1,3]thiazolo[5,4-c]pyridine-2-carbonyl)amino]cyclohexyl]oxamide] | ↑/↑↑ | —/↑ | – | ↑ | – | prolonged | ↓/↓↓ | ↑ | ↓↓ | – | – | – | – | –
4 | O=C(NC[C@H]1CN(c2ccc(N3CCOCC3=O)cc2)C(=O)O1)c1ccc(Cl)s1 [Rivaroxaban, 5-Chloro-N-({(5S)-2-oxo-3-[4-(3-oxo-4-morpholinyl)phenyl]-1,3-oxazolidin-5-yl}methyl)-2-thiophenecarboxamide] | ↑/↑↑ | —/↑ | —/↑ | —/↑ | prolonged | prolonged | ↓↓ | ↑ | ↓↓/↓↓↓ | completely removed | completely removed | prolongs the clotting time | No interference | 339 ng per ml
